Laboratory results published in patent US20080234266A1, “Squaric Acid Derivatives II” (priority 2005, published 2008).

What follows are compounds tested against T1, CHK1 kinase (Homo sapiens, UniProt O14757) (assay: Flashplate method (CHK1), measurement of the CHK1 kinase activity). Settings: class symbols; 'Affinity to receptors'.
T1 construct: glutathione S-transferase (GST); made in house; host or cells: Sf21 insect cells (S. frugiperda), baculovirus
T1 sequence (O14757 1-476): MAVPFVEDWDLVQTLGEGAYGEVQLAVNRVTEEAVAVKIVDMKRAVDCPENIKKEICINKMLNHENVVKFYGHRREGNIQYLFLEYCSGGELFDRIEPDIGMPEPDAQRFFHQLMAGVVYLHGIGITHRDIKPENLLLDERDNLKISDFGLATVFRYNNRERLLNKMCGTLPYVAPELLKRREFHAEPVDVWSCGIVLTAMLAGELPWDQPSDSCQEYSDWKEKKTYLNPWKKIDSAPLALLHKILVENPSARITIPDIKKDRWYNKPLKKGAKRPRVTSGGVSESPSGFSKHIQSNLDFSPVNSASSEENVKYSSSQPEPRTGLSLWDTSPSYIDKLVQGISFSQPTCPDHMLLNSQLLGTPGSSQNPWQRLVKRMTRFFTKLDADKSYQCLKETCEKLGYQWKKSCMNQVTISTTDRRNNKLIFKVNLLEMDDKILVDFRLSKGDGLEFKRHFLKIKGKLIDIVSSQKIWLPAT
Assay type: biochemical
How it was run: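 GST-tagged CHK1 expressed in Sf21 insect cells, incubated at 30 °C with biotinylated CHKtide (0.15 μg per well) and γ33P-ATP in pH 7.5 buffer (EGTA, Mg acetate, mercaptoethanol, 0.1% BSA). Stopped with EDTA, captured on streptavidin Flashplates and counted by scintillation. IC50 set against uninhibited reaction and 0.1 μM staurosporine as zero.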

IC50, > 1000 nM:
CS(=O)(=O)Oc1cccc(CNc2c(Nc3ccc4[nH]cnc4c3)c(=O)c2=O)c1 [Compound A132, 3-(1H-benzimidazol-5-ylamino)-4-(3-methyl-sulfonyloxybenzylamino)cyclobut-3-ene-1,2-dione]
O=c1c(NCc2cccc(OS(=O)(=O)C(F)(F)F)c2)c(Nc2ccc3[nH]cnc3c2)c1=O [Compound A133, 3-(1H-benzimidazol-5-ylamino)-4-(3-trifluoro-methylsulfonyloxybenzylamino)cyclobut-3-ene-1,2-dione]
O=CNc1cccc(CNc2c(Nc3ccc4[nH]cnc4c3)c(=O)c2=O)c1 [Compound A134, 3-(1H-benzimidazol-5-ylamino)-4-(3-formyl-aminobenzylamino)cyclobut-3-ene-1,2-dione]
O=c1c(NCc2cccc3[nH]ccc23)c(Nc2ccc3[nH]cnc3c2)c1=O [Compound A135, 3-(1H-benzimidazol-5-ylamino)-4-[(1H-indol-4-ylmethyl)amino]cyclobut-3-ene-1,2-dione]
O=c1c(NCc2cc(O)ccc2F)c(Nc2ccc3[nH]cnc3c2)c1=O [Compound A136, 3-(1H-benzimidazol-5-ylamino)-4-(2-fluoro-5-hydroxybenzylamino)cyclobut-3-ene-1,2-dione]
O=c1c(NCc2ccc3cc[nH]c3c2)c(Nc2ccc3[nH]cnc3c2)c1=O [Compound A137, 3-(1H-benzimidazol-5-ylamino)-4-[(1H-indol-6-ylmethyl)amino]cyclobut-3-ene-1,2-dione]
COc1cccc(C(CCC2OCCCO2)Nc2c(Nc3ccc4[nH]cnc4c3)c(=O)c2=O)c1 (stereo not shown) [Compound A138, 3-(1H-benzimidazol-5-ylamino)-4-[3-[1,3]-dioxan-2-yl-1-(3-methoxyphenyl)propyl-amino]cyclobut-3-ene-1,2-dione]
O=c1c(NCc2ccc(O)cc2)c(Nc2ccc3[nH]cnc3c2)c1=O [Compound A139, 3-(1H-benzimidazol-5-ylamino)-4-(4-hydroxy-benzylamino)cyclobut-3-ene-1,2-dione]
O=c1c(NCCc2ccc(O)cc2)c(Nc2ccc3[nH]cnc3c2)c1=O [Compound A140, 3-(1H-benzimidazol-5-ylamino)-4-[2-(4-hydroxyphenyl)ethylamino]cyclobut-3-ene-1,2-dione]
CN1CCN(c2ccc(CNc3c(Nc4ccc5[nH]cnc5c4)c(=O)c3=O)cc2)CC1 [Compound A141, 3-(1H-benzimidazol-5-ylamino)-4-[4-(4-methylpiperazin-1-yl)benzylamino]cyclobut-3-ene-1,2-dione]
O=c1c(NCCc2cccc(O)c2)c(Nc2ccc3[nH]cnc3c2)c1=O [Compound A142, 3-(1H-benzimidazol-5-ylamino)-4-[2-(3-hydroxyphenyl)ethylamino]cyclobut-3-ene-1,2-dione]
COc1ccccc1CCNc1c(Nc2ccc3[nH]cnc3c2)c(=O)c1=O [Compound A143, 3-(1H-benzimidazol-5-ylamino)-4-[2-(2-methoxyphenyl)ethylamino]cyclobut-3-ene-1,2-dione]
COc1ccccc1CNc1c(Nc2ccc3[nH]cnc3c2)c(=O)c1=O [Compound A144, 3-(1H-benzimidazol-5-ylamino)-4-(2-methoxybenzylamino)cyclobut-3-ene-1,2-dione]
CC(C)(C)OC(=O)N1CCC(Oc2ccccc2CNc2c(Nc3ccc4[nH]cnc4c3)c(=O)c2=O)CC1 [Compound A146, 3-(1H-benzimidazol-5-ylamino)-4-[2-(1-tert-butyloxycarbonylpiperidin-4-yloxy)benzyl-amino]cyclobut-3-ene-1,2-dione]
CN(C)c1ccc(CNc2c(Nc3ccc4[nH]cnc4c3)c(=O)c2=O)cc1 [Compound A147, 3-(1H-benzimidazol-5-ylamino)-4-(4-dimethylaminobenzylamino)cyclobut-3-ene-1,2-dione]
O=c1c(NCc2ccccc2OC2CCNCC2)c(Nc2ccc3[nH]cnc3c2)c1=O [Compound A148, 3-(1H-benzimidazol-5-ylamino)-4-[2-(piperidin-4-yloxy)benzylamino]cyclobut-3-ene-1,2-dione]
O=c1c(NCCc2ccccc2O)c(Nc2ccc3[nH]cnc3c2)c1=O [Compound A149, 3-(1H-benzimidazol-5-ylamino)-4-[2-(2-hydroxyphenyl)ethylamino]cyclobut-3-ene-1,2-dione]
CS(=O)(=O)c1ccc(CNc2c(Nc3ccc4[nH]cnc4c3)c(=O)c2=O)cc1 [Compound A150, 3-(1H-benzimidazol-5-ylamino)-4-(4-methyl-sulfonylbenzylamino)cyclobut-3-ene-1,2-dione]
NS(=O)(=O)c1ccc(CNc2c(Nc3ccc4[nH]cnc4c3)c(=O)c2=O)cc1 [Compound A151, 3-(1H-benzimidazol-5-ylamino)-4-(4-amino-sulfonylbenzylamino)cyclobut-3-ene-1,2-dione]
CNS(=O)(=O)c1ccc(CNc2c(Nc3ccc4[nH]cnc4c3)c(=O)c2=O)cc1 [Compound A152, 3-(1H-benzimidazol-5-ylamino)-4-[4-(N-methylaminosulfonyl)benzylamino]cyclobut-3-ene-1,2-dione]
CNS(=O)(=O)c1ccc(CN(C)c2c(Nc3ccc4[nH]cnc4c3)c(=O)c2=O)cc1 [Compound A153, 3-(1H-benzimidazol-5-ylamino)-4-[4-(N-methylaminosulfonyl)benzyl-N-methylamino]-cyclobut-3-ene-1,2-dione]
CNS(=O)(=O)c1ccccc1CNc1c(Nc2ccc3[nH]cnc3c2)c(=O)c1=O [Compound A154, 3-(1H-benzimidazol-5-ylamino)-4-[2-(N-methylaminosulfonyl)benzylamino]cyclobut-3-ene-1,2-dione]
NS(=O)(=O)c1ccccc1CNc1c(Nc2ccc3[nH]cnc3c2)c(=O)c1=O [Compound A155, 3-(1H-benzimidazol-5-ylamino)-4-(2-amino-sulfonylbenzylamino)cyclobut-3-ene-1,2-dione]
CS(=O)(=O)Nc1ccc(CNc2c(Nc3ccc4[nH]cnc4c3)c(=O)c2=O)cc1 [Compound A156, 3-(1H-benzimidazol-5-ylamino)-4-(4-methyl-sulfonylaminobenzylamino)cyclobut-3-ene-1,2-dione]
CC(=O)Nc1ccc(CNc2c(Nc3ccc4[nH]cnc4c3)c(=O)c2=O)cc1 [Compound A157, 3-(1H-benzimidazol-5-ylamino)-4-(4-acetamidobenzylamino)cyclobut-3-ene-1,2-dione]
O=c1c(NCc2ccccc2O)c(Nc2ccc3[nH]cnc3c2)c1=O [Compound A158, 3-(1H-benzimidazol-5-ylamino)-4-(2-hydroxy-benzylamino)cyclobut-3-ene-1,2-dione]
NC(=O)c1ccc(CNc2c(Nc3ccc4[nH]cnc4c3)c(=O)c2=O)cc1 [Compound A159, 3-(1H-benzimidazol-5-ylamino)-4-(4-amino-carbonylbenzylamino)cyclobut-3-ene-1,2-dione]
O=c1[nH]c2cc(CNc3c(Nc4ccc5[nH]cnc5c4)c(=O)c3=O)ccc2o1 [Compound A160, 3-(1H-benzimidazol-5-ylamino)-4-[(2-oxo-2,3-dihydrobenzoxazol-5-ylmethyl)amino]-cyclobut-3-ene-1,2-dione]
Cc1ccc(CC(O)c2cccc(CNc3c(Nc4ccc5[nH]cnc5c4)c(=O)c3=O)c2)cc1 (stereo not shown) [Compound A161, 3-(1H-benzimidazol-5-ylamino)-4-[3-(1-hydroxy-2-p-tolylethyl)benzylamino]cyclobut-3-ene-1,2-dione]
O=c1c(NCc2ccc(Cl)c(Cl)c2)c(Nc2ccc3[nH]cnc3c2)c1=O [Compound A162, 3-(1H-benzimidazol-5-ylamino)-4-(3,4-dichlorobenzylamino)cyclobut-3-ene-1,2-dione]
O=c1cnc2ccc(CNc3c(Nc4ccc5[nH]cnc5c4)c(=O)c3=O)cc2[nH]1 [Compound A163, 3-(1H-benzimidazol-5-ylamino)-4-[(3-oxo-3,4-dihydroquinoxalin-6-ylmethyl)amino]cyclobut-3-ene-1,2-dione]
O=c1c(NCc2cccc(OC(F)F)c2)c(Nc2ccc3nc[nH]c3c2)c1=O [Compound A164, 3-(3H-benzimidazol-5-ylamino)-4-(3-difluoro-methoxybenzylamino)cyclobut-3-ene-1,2-dione]
CCN(CC)CCn1cnc2ccc(Nc3c(NCc4ccc(-c5nnn[nH]5)cc4)c(=O)c3=O)cc21 [Compound A167, 3-[3-(2-diethylaminoethyl)-3H-benzimidazol-5-ylamino]-4-[4-(1H-tetrazol-5-yl)benzyl-amino]cyclobut-3-ene-1,2-dione]
CCN(CC)CCn1cnc2cc(Nc3c(N[C@H](C)c4cccc(OC)c4)c(=O)c3=O)ccc21 [Compound A168, 3-[1-(2-diethylaminoethyl)-1H-benzimidazol-5-ylamino]-4-[(R)-1-(3-methoxyphenyl)ethyl-amino]cyclobut-3-ene-1,2-dione]
